# Measurements reported in patent US20220324835A1 (Nurix Therapeutics, Inc., priority 2018, published 2022).
# Like-named read-outs stand apart in the source and are kept apart here.
# Assays:
# primary human NK cells = assay: NK cell activation assessed by cytokine secretion (coculture with K562 NucRed target cells); type: cell-based; details: K562, NK cells cocultured with K562 NucRed, 1:1 E/T; for fold induction at 0.625 µM: 0.625 μM compound; for fold induction at 2.5 µM: 2.5 μM compound; for fold induction at 10 µM: 10 μM compound
# How it was run: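 Primary NK cells from donor PBMC, IL-2 (60 ng/mL) overnight, then Cbl-b inhibitor (e.g. 10, 1 or 0.1 μM; DMSO <0.1%) for 1 h before 6 h coculture with K562 NucRed at effector:target ratios such as 5:1, 1:1 or 1:5. Supernatant IFNγ, TNFα, MIP1β measured by ELISA or Luminex; fold change over inhibitor-free baseline, >2.0-fold positive.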
# [1] = test system: primary human total T-cells; assay: T-cell activation assessed by cytokine secretion (GM-CSF, IFNγ, TNFα); type: cell-based
# How it was run: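 Readouts are fold change versus compound-free cells under the same stimulation: plate-bound anti-CD3 (OKT3, 10 μg/mL coating) alone or with soluble anti-CD28 at 5 μg/mL, for 48 h. Isolated human total T cells (1×10^5/well) got inhibitor 1 h beforehand at concentrations such as 10, 1.11 or 0.123 μM. Measured: GM-CSF/IFNγ/TNFα secretion, surface CD69, proliferation by dye dilution.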
# [2] = read-out: IFNγ secretion, fold change over baseline
# [3] = read-out: TNFα secretion, fold change over baseline
# [4] = CD3/CD28 stimulation, read-out: GM-CSF secretion
# [5] = CD3/CD28 stimulation, read-out: IFNγ secretion
# [6] = CD3/CD28 stimulation, read-out: TNFα secretion
# [7] = CD3 alone stimulation, read-out: GM-CSF secretion
# [8] = CD3 alone stimulation, read-out: IFNγ secretion
# [9] = CD3 alone stimulation, read-out: TNFα secretion
Structure (SMILES),fold induction at 0.625 µM (primary human NK cells; [2]),fold induction at 0.625 µM (primary human NK cells; [3]),fold induction at 2.5 µM (primary human NK cells; [2]),fold induction at 2.5 µM (primary human NK cells; [3]),fold induction at 10 µM (primary human NK cells; [2]),fold induction at 10 µM (primary human NK cells; [3]),"fold induction at 1.11 µM [1, 4]","fold induction at 1.11 µM [1, 5]","fold induction at 1.11 µM [1, 6]","fold induction at 10 µM [1, 4]","fold induction at 10 µM [1, 5]","fold induction at 10 µM [1, 6]","fold induction at 1.11 µM [1, 7]","fold induction at 1.11 µM [1, 8]","fold induction at 1.11 µM [1, 9]","fold induction at 10 µM [1, 7]","fold induction at 10 µM [1, 8]","fold induction at 10 µM [1, 9]"
"Cc1cc2c(c(C3CC3)n1)CN(c1cccc([C@H](C)Cc3nncn3C)c1)C2=O [Compound 372, 4-cyclopropyl-6-methyl-2-{3-[(2R)-1-(4-methyl-4H-1,2,4-triazol-3-yl)propan-2-yl]phenyl}-1H,2H,3H-pyrrolo[3,4-c]pyridin-1-one]",1.01 to 2,< 1,1.01 to 2,< 1,2.01 to 5,1.01 to 2,≤ 1.5,< 2,≤ 1.5,2.01 to 4,< 2,2.01 to 4,≤ 1.5,< 2,≤ 1.5,1.51 to 2,< 2,≤ 1.5
"C[C@H](Cc1nncn1C)c1cccc(NC(=O)c2cccc(CCO)n2)c1 [Compound 202, 6-(2-hydroxyethyl)-N-[3-[(2R)-1-(4-methyl-4H-1,2,4-triazol-3-yl)propan-2-yl]phenyl]pyridine-2-carboxamide]",1.01 to 2,< 1,1.01 to 2,1.01 to 2,2.01 to 5,1.01 to 2,≤ 1.5,< 2,≤ 1.5,1.51 to 2,> 4,1.51 to 2,≤ 1.5,< 2,≤ 1.5,1.51 to 2,< 2,≤ 1.5
